Source: patent US9820486B2, “Compositions and methods for controlling nematodes” (Monsanto Technology LLC, priority 2009, dated 2017)
Several values for one entry are separate records, joined by “and”; a condition that tells them apart may be missing. Equal entries are not always repeated. Marks after values point to notes of the source that are not given here.

Experiments:
root knot nematode (RKN) = assay: RKN greenhouse soil assay on cucumber plants; type: in vivo, Meloidogyne incognita; conditions: 0 day treatment, rated 14 days after egg inoculation
Excerpt: Cucumber seeds are planted in a sandy soil mixture in two inch square plastic pots. When the cotyledons are fully opened and just as the first leaf begins to emerge, usually 7 days after planting, chemistry for the 7-day treatment is applied. One week later the chemistry for the 0 day treatment is applied. Separate plants are used for each application. The plants are generally in the 1-2 leaf stage now. At least four hours after the chemistry application the pots are inoculated with root knot nematode (RKN) eggs. Plants are rated for galling 14 days after the egg inoculation.
(§1) One milligram of chemistry per four pots is equal to one kilogram per hectare of chemical. A standard test uses four replications. For rates above 2 kg/ha, the desired amount of chemical is weighed into a 30 ml vial (example: 8 kg/ha rate=8 mg chemical in 30 ml vial). The chemical is dissolved in 2 ml of appropriate solvent, generally acetone. For rates below 2 kg/ha, 2 milligrams of chemistry is weighed into the vial and dissolved in 2 ml of the solvent. The appropriate amount of chemical concentrate is then pipetted into a separate 30 ml vial and solvent is added to bring the volume to 2 ml (example 0.5 kg/ha=0.5 ml of concentrate+1.5 ml solvent). Each dissolved concentrate is then brought to a total of 20 milliliters using 0.05% Triton X 100 surfactant solution.
(§2) Pots to be treated are moist but not saturated. To each of four pots, five milliliters of the appropriate chemical solution is pipetted to the media surface making sure to avoid contact with the base of the plant. Immediately following chemical application, using a mist nozzle, the pot surface is wetted sufficiently to saturate the pot watering in the chemistry. The chemical application is done in the morning.
(§3) Nematode eggs, either SCN or RKN, are added to distilled water to create a concentration of 1000 vermiform eggs […]. At least four hours after chemical treatment the eggs are applied to the treated pots plus non-treated check plants. A small hole about 1 cm deep is punched into the pot surface. […]

Meloidogyne incognita = assay: M. incognita miniaturized greenhouse assay on cucumber seedlings (root galling); type: in vivo; conditions: cucumber roots, average of triplicate gall rating; for 1 ppm gall ratings: scale 0-3; for 8 ppm gall ratings: scale 0=0-5%, 1=6-20%, 2=21-50%, 3=51-100% root mass galled
Procedure: The test compound is dissolved in an acetone solution and added to water. A sprouted cucumber seedling is placed into a vial with dry sand and the water-chemical solution is added immediately. Twenty four hours later Meloidogyne incognita eggs are added to the vials and 10 to 12 days later the roots are evaluated for nematode galling.
Cucumber seeds are sprouted for 3 days in moist paper towels. Acceptable sprouts should be 3 to 4 cm long with several lateral roots just emerging. Stock solutions of chemistry are prepared in a mixture of acetone and Triton X100 (412 mg in 500 mL) to a final concentration of 5 mg/mL. The chemical stock solution is then added to 10 mL deionized water plus 0.015% Triton X100 and mixed thoroughly. This is enough to test each condition in triplicate. Ten mL dry sand is added to each vial. At this time the solubility of the chemistry is visually determined and recorded as either ppt (large precipitates) or cloudy (fine precipitates). Seedlings are planted by tilting the vial and laying the seedling in the correct orientation so that the cotyledons are just above the sand and then tilting back to cover the radicles with sand. 3.3 ml water/chemical mix is added to each vial and the vials placed in racks under fluorescent light banks. The vials are inoculated two days after planting by adding 500 vermiform M. incognita eggs to each vial in 50 uL of deionized or spring water. The vials are then kept under the fluorescent lamps at ambient room temperature and watered as needed with 1 mL deionized water, usually twice during duration of test. Harvest of the cucumber plants is done 10 to 12 days after inoculation by washing sand off the roots. A root gall rating and visual phytotoxicity rating is assigned using the following scales: Gall rating scale (Gall: % root mass galled): 0=0-5%; 1=6-20%; 2=21-50%; and 3=51-100%. The average of the triplicate gall rating is then calculated: green=0.00-0.33 (no galls); yellow=0.67-1.33 (mild galling); orange=1.67-2.33 (moderate galling); red=2.67-3.00 (severe galling). Visual phytotoxicity scale is also assigned (Vis. tox; visual reduction in root mass compared to the control): rs1=mild stunting; rs2=moderate stunting; rs3=severe stunting.

[1] = tested on: soybean cyst nematode (SCN); assay: SCN greenhouse soil assay on soybean plants; type: in vivo, Heterodera glycines; conditions: 0 day treatment, harvested 28 days after egg inoculation, tests a and b
Excerpt: Soybeans seeds are planted in 100% sand in two inch square plastic pots. Chemical treatment is done when the soybeans show the first trifoliate beginning to emerge about 10 to 12 days after planting. At least four hours after chemical application the nematode soybean cyst nematode (SCN) eggs are applied and 28 days after the egg inoculation the test is harvested.
as §1, §2
as §3, with “surface. One milliliter of the nematode egg slurry is pipetted into the hole. Immediately afterwards the hole is gently covered. Watering of the test plants is then restricted to only water as needed to prevent wilt for a period of 24 hours.” for “surface.”

Clc1ccc(-c2cnc(-n3cccc3)o2)cc1 [Name 10, 5-(4-chlorophenyl)-2-(1H-pyrrol-1-yl)oxazole] was tested, and the “percent control (galling reduction) relative to the control blank treatment, 0 day 1 kg/ha rate” value (root knot nematode (RKN)) was 100% and the “1 ppm gall ratings” value (Meloidogyne incognita) was 1.33.

With Clc1ccc(Oc2noc(-c3ccco3)n2)cc1 [Name 3, 3-(4-chlorophenoxy)-5-(furan-2-yl)-1,2,4-oxadiazole] the “percent control (galling reduction) relative to the control blank treatment, 0 day 1 kg/ha rate” value (root knot nematode (RKN)) was 89%, the “percent control (cyst reduction) relative to the control blank treatment, 0 day 0.25 kg/ha rate” value [1] was 79%^a, 79%^b and the “8 ppm gall ratings” value (Meloidogyne incognita) was 0^b.

Clc1ccc(-c2cnc(Sc3cccs3)o2)cc1 [Name 9, 5-(4-chlorophenyl)-2-(thiophen-2-ylthio)oxazole] was tested, and the “8 ppm gall ratings” value (Meloidogyne incognita) was 1.33^d.

CNC(=O)O/N=C(\SC)C(=O)N(C)C [Oxamyl, reference compound] was tested, and the “percent control (cyst reduction) relative to the control blank treatment, 0 day 0.25 kg/ha rate” value [1] was 67%^b and the “1 ppm gall ratings” value (Meloidogyne incognita) was 1.33^e.

For Clc1cccc(-c2noc(Cc3ccco3)n2)c1 [Name 2, 3-(3-chlorophenyl)-5-(furan-2-ylmethyl)-1,2,4-oxadiazole], the “8 ppm gall ratings” value (Meloidogyne incognita) was 1.3^a.

Clc1ccc(-c2coc(-c3ccco3)n2)cc1 [Name 8, 4-(4-chlorophenyl)-2-(furan-2-yl)oxazole] was tested, and the “8 ppm gall ratings” value (Meloidogyne incognita) was 0.67^d.

For Cc1ccc(-c2coc(-c3ccco3)n2)c(C)c1 [Name 7, 4-(2,4-dimethylphenyl)-2-(furan-2-yl)oxazole], the “8 ppm gall ratings” value (Meloidogyne incognita) was 1.33^c.

In the case of Clc1ccc(-c2noc(Cc3ccco3)n2)cc1 [Name 1, 3-(4-chlorophenyl)-5-(furan-2-ylmethyl)-1,2,4-oxadiazole], the “8 ppm gall ratings” value (Meloidogyne incognita) is reported as 1.3^a.

In the case of Clc1ccc(Cc2nsc(-c3ccco3)n2)cc1 [Name 5, 3-(4-chlorobenzyl)-5-(furan-2-yl)-1,2,4-thiadiazole], the “8 ppm gall ratings” value (Meloidogyne incognita) is reported as 0.67^b.

In the case of Clc1ccc(-c2coc(-c3ccco3)n2)c(Cl)c1 [Name 6, 4-(2,4-dichlorophenyl)-2-(furan-2-yl)oxazole], the “8 ppm gall ratings” value (Meloidogyne incognita) is reported as 0.33^c.

With Clc1cccc(Oc2noc(-c3ccco3)n2)c1 [Name 4, 3-(3-chlorophenoxy)-5-(furan-2-yl)-1,2,4-oxadiazole] the “percent control (galling reduction) relative to the control blank treatment, 0 day 1 kg/ha rate” value (root knot nematode (RKN)) was 83%, the “percent control (cyst reduction) relative to the control blank treatment, 0 day 0.25 kg/ha rate” value [1] was 67% and 78% and the “8 ppm gall ratings” value (Meloidogyne incognita) was 0^b.
